#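 Tested at 5 concentrations; 48 h exposure; 96-well plates; endpoints linearly interpolated, else capped at highest concentration. At the TGI there is no net growth.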
# Assays:
# Assay in all cases: NCI tumour cell line growth inhibition, 48 h
# 786-0 renal = system: 786-0 renal
# A549 NSCLC = system: A549 NSCLC
# CAKI-1 renal = system: CAKI-1 renal
# CCRF-CEM leukemia = system: CCRF-CEM leukemia
# DU-145 prostate = system: DU-145 prostate
# HCC-2998 colon = system: HCC-2998 colon
# LOX IMVI melanoma = system: LOX IMVI melanoma
# MCF7 breast = system: MCF7 breast
# NCI-H23 lung = system: NCI-H23 lung
# NCI-H522 lung = system: NCI-H522 lung
# OVCAR-4 ovarian = system: OVCAR-4 ovarian
# SF-295 CNS = system: SF-295 CNS
# SNB-19 CNS = system: SNB-19 CNS
# UO-31 renal = system: UO-31 renal
Structure (SMILES),TGI (786-0 renal) [µM],TGI (A549 NSCLC) [µM],TGI (CAKI-1 renal) [µM],TGI (CCRF-CEM leukemia) [µM],TGI (DU-145 prostate) [µM],TGI (HCC-2998 colon) [µM],TGI (LOX IMVI melanoma) [µM],TGI (MCF7 breast) [µM],TGI (NCI-H23 lung) [µM],TGI (NCI-H522 lung) [µM],TGI (OVCAR-4 ovarian) [µM],TGI (SF-295 CNS) [µM],TGI (SNB-19 CNS) [µM],TGI (UO-31 renal) [µM]
CCC1OC2C(CC=C(C)C)=C3OC(C)(O)C(C)(CC)C(OC(C)=O)C3=C3OC(=O)C=C1C32 (stereo not drawn),> 100,> 100,62.1,> 100,> 100,50.6,48.8,> 100,75.5,38.1,70.5,42.2,63.2,62.2
COC(=O)c1cc2c(c3c1CC(Cc1ccccc1)C3=O)CCC2 (stereo not drawn),> 100,> 100,–,> 100,> 100,> 100,> 100,> 100,> 100,> 100,> 100,> 100,> 100,–
O=C1Cc2c([nH]c3ccc(Br)cc23)-c2cc(O)c(O)cc2N1,> 100,> 100,> 100,–,> 100,> 100,> 100,> 100,> 100,> 100,> 100,> 100,> 100,> 100
CCOC(=O)NNC(=O)NCc1cccc(CNC(=O)NNC(=O)OCC)c1,> 100,> 100,> 100,> 100,> 100,> 100,> 100,> 100,> 100,> 100,> 100,–,> 100,> 100
CCOP1(=O)CC(C)=C(Cl)C(O)C1 (stereo not drawn),> 100,> 100,> 100,> 100,> 100,> 100,> 100,> 100,> 100,> 100,> 100,> 100,> 100,> 100
O=C(/C=C/c1ccccc1)Oc1ccc(C(=O)/C=C/c2ccc(Cl)cc2)cc1,> 100,> 100,> 100,> 100,> 100,> 100,–,> 100,–,–,–,> 100,> 100,> 100
COc1cc(O)c2c(=O)c(O)c(-c3ccc(O)c(OC)c3)oc2c1,> 100,> 100,> 100,> 21.9,> 100,> 100,> 100,> 100,> 100,6.21,–,> 100,> 100,–
O=CNCNCCO,> 100,> 100,> 100,> 100,> 100,> 100,–,> 100,> 100,–,> 100,–,> 100,> 100
Oc1ccc2cc(Br)ccc2c1-c1c(O)ccc2ccc(Br)cc12,28.2,30.4,34,28.3,29.2,19.5,–,28.8,29.1,29.9,–,30.6,29.3,28.8
O=C1CSC2(CC(/C=C/c3cccc([N+](=O)[O-])c3)=NN2c2cccc(S(=O)(=O)O)c2)N1c1nc2ccccc2s1 (stereo not drawn),31.8,69.2,> 100,48.3,40.6,> 100,29.1,37.2,43.4,34.1,72.1,–,43.6,34.3
O=C(c1cccs1)N(C(=S)OCCOc1ccccc1)c1ccccc1,73.7,> 100,83.8,59.4,> 100,59.4,33.3,44.6,42.3,45.1,86.7,71,> 100,–
CC(=O)Oc1ccc(/C=C/C(=O)OCCCOC(=O)/C=C/c2ccc(OC(C)=O)c(OC(C)=O)c2)cc1OC(C)=O,> 100,> 100,> 100,–,> 100,> 100,> 100,> 100,> 100,> 100,> 100,> 100,> 100,> 100
CC1=NC(=Cc2ccccc2O)C(=O)N1n1c(-c2ccccc2)nc2ccccc2c1=O,> 100,> 100,–,> 100,> 100,> 100,> 100,74.2,> 100,> 100,> 100,> 100,> 100,> 100
NS(=O)(=O)c1nnc(NS(=O)(=O)C(F)(F)F)s1,> 100,> 100,> 100,–,> 100,> 100,–,> 100,> 100,> 100,> 100,> 100,> 100,> 100
CCCCc1ccc(-n2sc3ncc(C)cc3c2=O)cc1,> 100,78.9,–,50.5,> 100,> 100,72.3,34.3,> 100,40.6,> 100,> 100,> 100,20.2
CC1(C)OCC([C@H]2O[C@@H](CC(=S)NCCCCCCCCCCCCNC(=S)C[C@H]3O[C@@H](C4COC(C)(C)O4)[C@H]4OC(C)(C)O[C@H]43)[C@H]3OC(C)(C)O[C@H]32)O1 (stereo partly drawn),> 100,> 100,> 100,–,> 100,> 100,> 100,> 100,> 100,> 100,> 100,> 100,–,95
COc1ccc(/C=N/n2c(C)n[nH]c2=O)c(OC)c1,> 100,> 100,> 100,> 100,> 100,> 100,–,> 100,> 100,–,> 100,> 100,> 100,> 100
COc1c(=O)cc2cc[nH]c3ccn(C)c1c23,> 100,> 100,> 100,–,> 100,> 100,> 100,> 100,> 100,–,> 100,> 100,> 100,> 100

Structure (SMILES),TGI (786-0 renal) [µM],TGI (A549 NSCLC) [µM],TGI (CAKI-1 renal) [µM],TGI (CCRF-CEM leukemia) [µM],TGI (DU-145 prostate) [µM],TGI (HCC-2998 colon) [µM],TGI (LOX IMVI melanoma) [µM],TGI (MCF7 breast) [µM],TGI (NCI-H23 lung) [µM],TGI (NCI-H522 lung) [µM],TGI (OVCAR-4 ovarian) [µM],TGI (SF-295 CNS) [µM],TGI (SNB-19 CNS) [µM],TGI (UO-31 renal) [µM]
CCOC(=O)C1(F)S(=O)(=O)OCCOS1(=O)=O,> 100,> 100,> 100,–,> 100,> 100,> 100,> 100,> 100,> 100,> 100,> 100,> 100,> 100
C[N+]12C=CC=C1C(N1CCCC1)c1scc(-c3ccccc3)c12 (stereo not drawn),> 100,> 100,> 100,> 100,> 100,–,> 100,71.7,–,29.7,–,> 100,> 100,> 100
CC1CN=C(N(Cc2ccccc2)C(=O)Nc2ccc(Cl)c(Cl)c2)S1 (stereo not drawn),> 100,> 100,> 100,> 10,> 100,> 10,> 100,> 100,> 100,–,> 100,> 10,> 100,97.9
CC(C)(C)C1=CC(C)(n2[nH]c(=O)n(-c3ccccc3)c2=O)C=C(C(C)(C)C)C1=O,> 100,> 100,> 100,–,> 100,> 100,> 100,> 100,> 100,> 100,> 100,> 100,> 100,> 100
Clc1cc(Cl)cc(N=C/C=C/Nc2cc(Cl)cc(Cl)c2)c1,31.4,43.1,38.2,60.9,44.3,33.4,–,27.2,30.6,34.1,32.7,51.4,53.8,71.7
COc1ccc(OC)c(CNc2ccc(C(=O)O)cc2)c1,> 100,> 100,> 100,> 100,> 100,> 100,> 100,> 100,> 100,> 100,> 100,–,> 100,> 100
CC1=NN(c2nc(N)nc(/C(C#N)=C\c3csc([N+](=O)[O-])c3)n2)C(C)(C)C1,32.2,–,> 100,> 100,> 100,> 100,> 100,> 100,97.5,50.1,56.4,> 100,–,> 100
NC1CC(=O)c2c1sc(Cl)c2Cl (stereo not drawn),> 100,> 100,> 100,> 100,> 100,> 100,–,> 100,–,–,–,–,> 100,> 100
CCc1c(C)c(C#N)c(=S)n(C2OC(COC(C)=O)C(OC(C)=O)C(OC(C)=O)C2OC(C)=O)c1-c1ccccc1 (stereo not drawn),> 31.6,> 31.6,> 100,> 100,> 31.6,> 31.6,> 31.6,> 31.6,> 31.6,> 31.6,> 31.6,27,–,> 31.6
c1ccc2oc(-c3ccc(-c4nc5ccccc5o4)c4c3CC4)nc2c1,> 100,> 100,> 100,> 100,> 100,> 100,> 100,> 100,> 100,–,> 100,> 100,> 100,> 100
CCOC(=O)c1nc2cc(C(F)(F)F)ccc2nc1Nc1ccc(OC)cc1,> 100,> 100,> 100,–,> 100,> 100,> 100,> 100,> 100,> 100,–,> 100,> 100,> 100
O=[N+]([O-])c1ccc(-c2nc3ccc(Cl)cc3[nH]2)cc1,> 100,> 100,> 100,–,> 100,–,> 100,> 100,> 100,> 100,> 100,> 100,> 100,> 100
NNC(=O)c1c(-c2cccnc2)cnc2ccccc12,> 100,> 100,> 100,> 100,> 100,> 100,–,> 100,> 100,> 100,> 100,> 100,> 100,> 100
COc1ccc(OC)c(N(CN2C(=O)CCC2C(=O)O)C(C)=O)c1 (stereo not drawn),> 100,> 100,> 100,> 100,> 100,–,> 100,> 100,> 100,> 100,> 100,> 100,> 100,> 100
COC(=O)C(CCSC)NC(=O)CNC(=O)CSc1nnc(COc2ccc(Cl)cc2)n1-c1ccccc1 (stereo not drawn),29.5,> 100,–,26.1,55.8,27,23.8,39.6,30.2,–,50.1,–,> 100,22.1
CCCCCCCC1(N=[N+]=[N-])C(=O)Nc2ccccc2C1=O (stereo not drawn),32,28,27.8,95.4,31.8,39.9,26.9,34.6,40.5,–,29.8,36.2,32.4,25.3
CCOC(=O)CNC(=O)C(CSC(=O)N(O)c1ccc(Cl)cc1)NC(=O)CCC(N)C(=O)OCC (stereo not drawn),> 50,> 50,> 50,> 50,> 50,> 50,> 50,> 50,> 50,–,–,> 50,> 50,> 50
